How the values were obtained:
Conditions in all cases: 72 h
U2OS [1] = test: drug sensitivity score (DSS) for viability; higher = more toxic; extreme values may be limits of the assay
Caco-2 [2] = test: as above
HepG2 [3] = test: as above
Vero E6 [4] = test: as above
Calu-3 [5] = test: as above
U2OS [6] = test: relative viability EC50 (midpoint between 100% and the lowest measured viability); higher = less toxic
Caco-2 [7] = test: as above
HepG2 [8] = test: as above
Vero E6 [9] = test: as above
Calu-3 [10] = test: as above
U2OS [11] = test: cell viability relative to DMSO; higher = less toxic
Caco-2 [12] = test: as above
HepG2 [13] = test: as above
Vero E6 [14] = test: as above
Calu-3 [15] = test: as above

| Compound | drug sensitivity score (U2OS [1]) | drug sensitivity score (Caco-2 [2]) | drug sensitivity score (HepG2 [3]) | drug sensitivity score (Vero E6 [4]) | drug sensitivity score (Calu-3 [5]) | relative viability EC50 (U2OS [6]) | relative viability EC50 (Caco-2 [7]) | relative viability EC50 (HepG2 [8]) | relative viability EC50 (Vero E6 [9]) | relative viability EC50 (Calu-3 [10]) | cell viability (U2OS [11]; 1 nM) | cell viability (U2OS [11]; 10 nM) | cell viability (U2OS [11]; 100 nM) | cell viability (U2OS [11]; 1000 nM) | cell viability (U2OS [11]; 10000 nM) | cell viability (Caco-2 [12]; 1 nM) | cell viability (Caco-2 [12]; 10 nM) | cell viability (Caco-2 [12]; 100 nM) | cell viability (Caco-2 [12]; 1000 nM) | cell viability (Caco-2 [12]; 10000 nM) | cell viability (HepG2 [13]; 1 nM) | cell viability (HepG2 [13]; 10 nM) | cell viability (HepG2 [13]; 100 nM) | cell viability (HepG2 [13]; 1000 nM) | cell viability (HepG2 [13]; 10000 nM) | cell viability (Vero E6 [14]; 1 nM) | cell viability (Vero E6 [14]; 10 nM) | cell viability (Vero E6 [14]; 100 nM) | cell viability (Vero E6 [14]; 1000 nM) | cell viability (Vero E6 [14]; 10000 nM) | cell viability (Calu-3 [15]; 1 nM) | cell viability (Calu-3 [15]; 10 nM) | cell viability (Calu-3 [15]; 100 nM) | cell viability (Calu-3 [15]; 1000 nM) | cell viability (Calu-3 [15]; 10000 nM) |
| --- | --- | --- | --- | --- | --- | --- | --- | --- | --- | --- | --- | --- | --- | --- | --- | --- | --- | --- | --- | --- | --- | --- | --- | --- | --- | --- | --- | --- | --- | --- | --- | --- | --- | --- | --- |
| CC(C(=O)O)c1ccc(CC2CCCC2=O)cc1 (stereo not given) [loxoprofen] | 0 | 0 | 0 | 0 | 0 | > 10 µM | > 10 µM | > 10 µM | > 10 µM | > 10 µM | 108% | 92.7% | 98.3% | 94.8% | 96.9% | 98.6% | 90% | 97.1% | 88.1% | 96% | 92.1% | 104% | 97% | 108% | 94.3% | 106% | 97.4% | 98.4% | 92.8% | 94.2% | 101% | 110% | 104% | 108% | 93.6% |
| O=C1CCC[C@@H]2[C@H]3C[C@@H](CN12)[C@@H]1CCCCN1C3 [lupanine] | 0 | 1.8 | 0 | 0 | 0 | > 10 µM | > 10 µM | > 10 µM | > 10 µM | > 10 µM | 101% | 96.2% | 98.6% | 94% | 100% | 103% | 92.8% | 90.4% | 87.2% | 91.4% | 99.4% | 95.7% | 93% | 110% | 93.7% | 92.1% | 97.9% | 93.8% | 98.1% | 95.7% | 87.2% | 96.8% | 99.5% | 95.5% | 94.4% |
| N=C(N)NC(=N)Nc1cccc(Cl)c1 [m-chlorophenylbiguanide] | 0 | 0 | 0 | 0 | 0 | > 10 µM | > 10 µM | > 10 µM | > 10 µM | > 10 µM | 94.3% | 98.9% | 103% | 95.9% | 101% | 101% | 92.2% | 100% | 101% | 97.1% | 112% | 106% | 102% | 105% | 99.2% | 100% | 101% | 95.9% | 101% | 96.9% | 108% | 94.7% | 106% | 98% | 116% |

— the supplement of paper PMC13380429
